Reference: ChEMBL document CHEMBL1150977, “A quantitative analysis of kinase inhibitor selectivity” (Nat Biotechnol, 2008)

Columns and labels:
Angiopoietin-1 receptor = Angiopoietin-1 receptor (Homo sapiens, UniProt Q02763)
[1] = molecular target: Tyrosine-protein kinase SYK (Homo sapiens, UniProt P43405)
[2] = molecular target: Protein kinase C eta type (Homo sapiens, UniProt P24723)
[3] = molecular target: Serine/threonine-protein kinase PAK 4 (Homo sapiens, UniProt O96013)
[4] = molecular target: MAP kinase-activated protein kinase 2 (Homo sapiens, UniProt P49137)
[5] = molecular target: Serine/threonine-protein kinase PLK3 (Homo sapiens, UniProt Q9H4B4)
[6] = molecular target: T1, Serine/threonine-protein kinase STK11 (Homo sapiens, UniProt Q15831)
T1 sequence (Q15831 whole entry): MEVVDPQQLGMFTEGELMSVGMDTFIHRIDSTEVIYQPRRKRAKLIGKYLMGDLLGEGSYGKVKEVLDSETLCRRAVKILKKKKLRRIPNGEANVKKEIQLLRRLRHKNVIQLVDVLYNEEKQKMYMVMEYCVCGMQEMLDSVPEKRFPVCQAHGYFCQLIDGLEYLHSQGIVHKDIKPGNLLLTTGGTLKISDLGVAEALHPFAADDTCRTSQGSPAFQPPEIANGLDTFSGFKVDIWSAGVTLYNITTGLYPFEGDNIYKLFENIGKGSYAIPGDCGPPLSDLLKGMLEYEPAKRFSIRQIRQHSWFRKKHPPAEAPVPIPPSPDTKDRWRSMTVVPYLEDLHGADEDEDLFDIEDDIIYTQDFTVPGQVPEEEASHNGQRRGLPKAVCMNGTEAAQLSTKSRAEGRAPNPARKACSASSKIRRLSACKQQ

[7] = molecular target: Receptor-type tyrosine-protein kinase FLT3 (Homo sapiens, UniProt P36888, D835Y)
[8] = molecular target: Cyclin-dependent kinase 3 (Homo sapiens, UniProt Q00526)
Chain of Cyclin-dependent kinase 3 (Q00526 whole entry): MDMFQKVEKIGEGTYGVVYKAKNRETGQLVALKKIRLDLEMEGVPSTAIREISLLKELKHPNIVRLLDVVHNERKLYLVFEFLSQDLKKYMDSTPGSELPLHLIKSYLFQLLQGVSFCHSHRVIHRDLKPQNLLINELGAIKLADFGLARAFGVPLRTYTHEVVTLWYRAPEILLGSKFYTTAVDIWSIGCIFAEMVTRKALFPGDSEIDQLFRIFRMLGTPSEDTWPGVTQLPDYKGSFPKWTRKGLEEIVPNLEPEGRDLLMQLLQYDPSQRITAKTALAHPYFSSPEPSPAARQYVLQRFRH

[9] = molecular target: Ribosomal protein S6 kinase alpha-2 (Homo sapiens, UniProt Q15349)
Chain of Ribosomal protein S6 kinase alpha-2 (Q15349 whole entry): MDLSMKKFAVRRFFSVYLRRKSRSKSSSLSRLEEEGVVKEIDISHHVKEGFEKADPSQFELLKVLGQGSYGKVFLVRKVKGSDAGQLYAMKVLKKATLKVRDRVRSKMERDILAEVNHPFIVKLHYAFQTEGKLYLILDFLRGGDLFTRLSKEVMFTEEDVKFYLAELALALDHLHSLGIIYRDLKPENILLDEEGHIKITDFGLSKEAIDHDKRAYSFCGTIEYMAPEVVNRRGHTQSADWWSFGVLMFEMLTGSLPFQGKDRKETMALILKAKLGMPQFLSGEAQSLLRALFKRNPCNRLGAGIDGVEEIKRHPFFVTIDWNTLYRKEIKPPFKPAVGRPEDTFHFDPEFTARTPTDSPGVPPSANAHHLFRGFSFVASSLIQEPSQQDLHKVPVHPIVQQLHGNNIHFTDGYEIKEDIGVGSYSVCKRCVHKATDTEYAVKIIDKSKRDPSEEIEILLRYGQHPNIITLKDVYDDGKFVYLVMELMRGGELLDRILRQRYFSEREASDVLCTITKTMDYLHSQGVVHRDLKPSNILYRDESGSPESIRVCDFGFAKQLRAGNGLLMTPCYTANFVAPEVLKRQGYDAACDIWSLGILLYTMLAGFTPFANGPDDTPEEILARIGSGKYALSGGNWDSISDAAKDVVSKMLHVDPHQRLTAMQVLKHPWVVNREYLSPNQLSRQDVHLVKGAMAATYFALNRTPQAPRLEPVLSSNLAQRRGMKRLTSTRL

[10] = molecular target: Tyrosine-protein kinase BTK (Homo sapiens, UniProt Q06187)
Chain of Tyrosine-protein kinase BTK (Q06187 whole entry, canonical isoform): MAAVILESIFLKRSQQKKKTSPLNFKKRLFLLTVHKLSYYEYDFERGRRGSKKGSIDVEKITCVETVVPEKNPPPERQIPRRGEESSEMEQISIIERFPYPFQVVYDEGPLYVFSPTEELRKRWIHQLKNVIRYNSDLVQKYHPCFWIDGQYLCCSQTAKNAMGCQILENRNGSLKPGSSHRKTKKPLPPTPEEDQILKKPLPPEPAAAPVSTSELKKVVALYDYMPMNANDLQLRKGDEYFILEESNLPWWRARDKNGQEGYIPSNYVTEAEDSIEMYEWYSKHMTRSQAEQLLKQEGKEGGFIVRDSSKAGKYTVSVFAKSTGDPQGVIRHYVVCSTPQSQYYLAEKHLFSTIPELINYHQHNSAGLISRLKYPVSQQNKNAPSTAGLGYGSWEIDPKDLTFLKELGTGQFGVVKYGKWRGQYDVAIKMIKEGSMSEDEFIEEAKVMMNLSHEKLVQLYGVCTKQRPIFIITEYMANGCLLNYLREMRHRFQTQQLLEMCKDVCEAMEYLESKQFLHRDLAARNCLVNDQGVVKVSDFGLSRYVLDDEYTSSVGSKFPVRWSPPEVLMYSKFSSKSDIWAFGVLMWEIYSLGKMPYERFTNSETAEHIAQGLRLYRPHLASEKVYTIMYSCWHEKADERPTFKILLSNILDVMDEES

[11] = molecular target: Casein kinase I isoform epsilon (Homo sapiens, UniProt P49674)
Aurora kinase B = Aurora kinase B (Homo sapiens, UniProt Q96GD4)
Chain of Aurora kinase B (Q96GD4 whole entry): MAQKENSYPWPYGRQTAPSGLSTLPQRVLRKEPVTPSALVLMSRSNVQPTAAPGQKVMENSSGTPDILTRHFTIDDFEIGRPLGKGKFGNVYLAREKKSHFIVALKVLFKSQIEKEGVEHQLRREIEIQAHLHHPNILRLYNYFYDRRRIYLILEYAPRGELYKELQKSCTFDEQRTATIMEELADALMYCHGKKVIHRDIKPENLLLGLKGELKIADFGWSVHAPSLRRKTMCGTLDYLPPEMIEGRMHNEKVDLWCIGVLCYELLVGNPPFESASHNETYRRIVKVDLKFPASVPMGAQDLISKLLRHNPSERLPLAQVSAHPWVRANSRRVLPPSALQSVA

[12] = molecular target: Tyrosine-protein kinase Lyn (Homo sapiens, UniProt P07948)
[13] = molecular target: Proto-oncogene tyrosine-protein kinase receptor Ret (Homo sapiens, UniProt P07949, M918T)
[14] = molecular target: Serine/threonine-protein kinase N2 (Homo sapiens, UniProt Q16513)
Chain of Serine/threonine-protein kinase N2 (Q16513 whole entry): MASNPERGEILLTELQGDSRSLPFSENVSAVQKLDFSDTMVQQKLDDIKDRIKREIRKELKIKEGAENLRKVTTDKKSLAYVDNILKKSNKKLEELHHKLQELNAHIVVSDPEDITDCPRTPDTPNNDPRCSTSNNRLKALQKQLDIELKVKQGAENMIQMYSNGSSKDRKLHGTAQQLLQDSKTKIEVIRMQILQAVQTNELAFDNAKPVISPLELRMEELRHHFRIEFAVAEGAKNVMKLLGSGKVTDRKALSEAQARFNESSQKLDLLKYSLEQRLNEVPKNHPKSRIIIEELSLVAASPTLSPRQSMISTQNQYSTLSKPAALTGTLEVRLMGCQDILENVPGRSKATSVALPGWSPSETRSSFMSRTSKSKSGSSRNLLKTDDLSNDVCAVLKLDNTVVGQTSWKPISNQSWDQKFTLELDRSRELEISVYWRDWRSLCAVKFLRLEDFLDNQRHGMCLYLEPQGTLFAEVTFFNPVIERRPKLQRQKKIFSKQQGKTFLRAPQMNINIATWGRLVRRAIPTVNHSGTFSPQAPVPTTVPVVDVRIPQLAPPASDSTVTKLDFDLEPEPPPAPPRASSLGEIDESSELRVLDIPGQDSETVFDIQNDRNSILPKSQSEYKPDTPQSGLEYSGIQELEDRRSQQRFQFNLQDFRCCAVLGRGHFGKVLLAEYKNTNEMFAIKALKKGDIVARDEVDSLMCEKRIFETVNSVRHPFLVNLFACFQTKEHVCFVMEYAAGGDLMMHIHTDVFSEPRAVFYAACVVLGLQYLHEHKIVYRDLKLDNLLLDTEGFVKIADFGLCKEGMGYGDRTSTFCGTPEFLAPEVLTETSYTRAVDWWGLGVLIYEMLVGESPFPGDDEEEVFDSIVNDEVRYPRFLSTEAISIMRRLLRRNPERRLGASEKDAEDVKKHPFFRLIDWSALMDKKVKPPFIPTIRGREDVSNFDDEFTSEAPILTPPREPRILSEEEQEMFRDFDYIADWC

[15] = molecular target: Fibroblast growth factor receptor 1 (Homo sapiens, UniProt P11362)
[16] = molecular target: Dual specificity protein kinase CLK4 (Homo sapiens, UniProt Q9HAZ1)
[17] = molecular target: Dual specificity protein kinase CLK1 (Homo sapiens, UniProt P49759)
[18] = molecular target: Dual specificity mitogen-activated protein kinase kinase 1 (Homo sapiens, UniProt Q02750)
Chain of Dual specificity mitogen-activated protein kinase kinase 1 (Q02750 whole entry): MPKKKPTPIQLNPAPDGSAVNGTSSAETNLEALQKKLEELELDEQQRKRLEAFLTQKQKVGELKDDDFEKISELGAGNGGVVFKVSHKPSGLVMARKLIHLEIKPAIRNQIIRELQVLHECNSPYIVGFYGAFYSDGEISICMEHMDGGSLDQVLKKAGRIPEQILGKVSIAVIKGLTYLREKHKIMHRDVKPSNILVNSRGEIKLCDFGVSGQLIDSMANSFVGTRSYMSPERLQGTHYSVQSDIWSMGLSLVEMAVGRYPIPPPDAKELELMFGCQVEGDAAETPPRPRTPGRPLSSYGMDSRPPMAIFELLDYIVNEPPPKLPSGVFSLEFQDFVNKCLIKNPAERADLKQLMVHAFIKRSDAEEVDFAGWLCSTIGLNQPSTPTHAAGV

[19] = molecular target: T2, Serine/threonine-protein kinase 17A (Homo sapiens, UniProt Q9UEE5)
T2 sequence (Q9UEE5 whole entry): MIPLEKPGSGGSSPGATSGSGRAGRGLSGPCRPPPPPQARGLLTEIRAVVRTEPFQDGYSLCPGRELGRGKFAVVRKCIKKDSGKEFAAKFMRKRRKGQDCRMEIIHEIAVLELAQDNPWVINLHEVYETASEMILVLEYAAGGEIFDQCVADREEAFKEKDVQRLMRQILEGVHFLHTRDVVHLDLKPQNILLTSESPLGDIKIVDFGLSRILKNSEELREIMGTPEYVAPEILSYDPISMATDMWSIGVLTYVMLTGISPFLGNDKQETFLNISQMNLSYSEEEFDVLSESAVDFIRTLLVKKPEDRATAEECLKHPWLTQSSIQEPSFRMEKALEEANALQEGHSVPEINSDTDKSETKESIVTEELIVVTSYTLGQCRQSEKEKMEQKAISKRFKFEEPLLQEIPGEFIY

[20] = molecular target: T3, Serine/threonine-protein kinase 4 (Homo sapiens, UniProt Q13043)
T3 sequence (Q13043 whole entry): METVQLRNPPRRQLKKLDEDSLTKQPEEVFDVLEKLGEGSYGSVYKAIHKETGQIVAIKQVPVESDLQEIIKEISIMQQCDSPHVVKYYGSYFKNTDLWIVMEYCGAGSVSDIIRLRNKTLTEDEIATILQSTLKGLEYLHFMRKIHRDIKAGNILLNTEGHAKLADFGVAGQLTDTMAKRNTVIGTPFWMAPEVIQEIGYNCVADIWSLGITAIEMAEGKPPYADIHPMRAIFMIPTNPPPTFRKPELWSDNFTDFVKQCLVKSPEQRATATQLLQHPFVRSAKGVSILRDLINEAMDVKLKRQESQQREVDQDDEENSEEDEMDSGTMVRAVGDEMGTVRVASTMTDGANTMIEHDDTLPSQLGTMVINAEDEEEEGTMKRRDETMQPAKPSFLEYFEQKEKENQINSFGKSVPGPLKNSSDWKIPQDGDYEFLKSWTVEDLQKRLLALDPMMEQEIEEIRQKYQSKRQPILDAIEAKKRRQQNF

[21] = molecular target: Mitogen-activated protein kinase kinase kinase 11 (Homo sapiens, UniProt Q16584)

Chain of Serine/threonine-protein kinase PAK 4 (O96013 whole entry): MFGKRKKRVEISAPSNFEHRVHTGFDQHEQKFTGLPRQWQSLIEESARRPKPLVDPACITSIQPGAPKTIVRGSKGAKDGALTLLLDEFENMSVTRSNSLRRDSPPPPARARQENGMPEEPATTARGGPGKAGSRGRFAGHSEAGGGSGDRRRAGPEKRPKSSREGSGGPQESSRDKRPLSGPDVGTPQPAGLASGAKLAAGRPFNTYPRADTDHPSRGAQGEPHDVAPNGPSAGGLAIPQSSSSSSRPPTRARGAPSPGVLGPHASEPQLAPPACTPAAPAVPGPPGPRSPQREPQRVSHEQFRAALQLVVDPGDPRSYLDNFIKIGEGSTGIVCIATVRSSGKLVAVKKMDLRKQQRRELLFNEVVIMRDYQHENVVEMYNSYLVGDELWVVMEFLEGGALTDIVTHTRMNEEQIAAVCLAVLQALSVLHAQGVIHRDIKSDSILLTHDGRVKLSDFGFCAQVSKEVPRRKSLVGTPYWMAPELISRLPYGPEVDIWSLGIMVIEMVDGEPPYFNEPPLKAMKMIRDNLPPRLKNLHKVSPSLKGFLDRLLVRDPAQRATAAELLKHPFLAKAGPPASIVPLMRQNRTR
Chain of Protein kinase C eta type (P24723 whole entry): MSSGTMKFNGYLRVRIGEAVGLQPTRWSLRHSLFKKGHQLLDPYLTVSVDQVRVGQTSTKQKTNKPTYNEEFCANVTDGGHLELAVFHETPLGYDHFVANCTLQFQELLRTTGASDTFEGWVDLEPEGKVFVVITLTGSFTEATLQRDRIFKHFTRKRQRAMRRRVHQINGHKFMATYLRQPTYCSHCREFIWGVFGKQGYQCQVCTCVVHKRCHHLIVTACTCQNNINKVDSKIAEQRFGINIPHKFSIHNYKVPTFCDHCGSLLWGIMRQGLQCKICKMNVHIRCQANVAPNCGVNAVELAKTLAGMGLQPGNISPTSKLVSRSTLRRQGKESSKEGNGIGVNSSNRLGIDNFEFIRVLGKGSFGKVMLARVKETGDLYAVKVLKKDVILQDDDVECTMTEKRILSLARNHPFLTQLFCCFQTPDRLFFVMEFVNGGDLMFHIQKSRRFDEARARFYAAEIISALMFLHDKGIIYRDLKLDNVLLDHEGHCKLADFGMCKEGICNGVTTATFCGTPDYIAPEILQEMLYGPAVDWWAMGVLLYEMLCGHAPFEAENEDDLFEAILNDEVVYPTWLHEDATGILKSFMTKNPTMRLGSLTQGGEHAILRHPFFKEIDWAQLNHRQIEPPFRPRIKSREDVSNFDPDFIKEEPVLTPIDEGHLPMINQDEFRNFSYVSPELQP

SMILES | Kd (Angiopoietin-1 receptor) [µM] | Kd [1] [µM] | Kd [2] [µM] | Kd [3] [µM] | Kd [4] [µM] | Kd [5] [µM] | Kd [6] [µM] | Kd [7] [µM] | Kd [8] [µM] | Kd [9] [µM] | Kd [10] [µM] | Kd [11] [nM] | Kd (Aurora kinase B) [µM] | Kd [12] [µM] | Kd [13] [µM] | Kd [14] [µM] | Kd [15] [µM] | Kd [16] [µM] | Kd [20] [µM] | Kd [21] [µM] | further results
CCOc1cc2ncc(C#N)c(Nc3ccc(F)c(Cl)c3)c2cc1NC(=O)/C=C/CN(C)C [PELITINIB] | > 10 | 7.2 | > 10 | > 10 | > 10 | > 10 | > 10 | 2.8 | > 10 | > 10 | 4.9 | 100 | > 10 | 0.72 | > 10 | > 10 | > 10 | – | – | – | –
COCC(=O)NC/C=C/c1ccc2ncnc(Nc3ccc(Oc4ccc(C)nc4)c(C)c3)c2c1 [CP-724714] | > 10 | > 10 | > 10 | > 10 | > 10 | > 10 | > 10 | > 10 | > 10 | > 10 | > 10 | > 10000 | > 10 | > 10 | > 10 | > 10 | > 10 | > 10 | > 10 | – | Kd [17]: > 10 µM; Kd [18]: > 10 µM; Kd [19]: > 10 µM
NC(=O)c1ccc(-c2nc(-c3ccc4c(c3)OCO4)c(-c3ccccn3)[nH]2)cc1 [SB-431542] | > 10 | > 10 | > 10 | > 10 | > 10 | > 10 | > 10 | – | > 10 | > 10 | > 10 | – | > 10 | > 10 | > 10 | > 10 | > 10 | > 10 | > 10 | > 10 | Kd [17]: > 10 µM; Kd [18]: > 10 µM; Kd [19]: > 10 µM
Nc1nc(Nc2ccc(S(N)(=O)=O)cc2)nn1C(=O)c1c(F)cccc1F [JNJ-7706621] | – | – | > 10 | – | > 10 | – | > 10 | – | – | 0.41 | – | 3600 | – | > 10 | – | – | – | – | 0.13 | > 10 | –
Oc1ccc(-c2nc(-c3ccncc3)c(-c3ccc(F)cc3)[nH]2)cc1 [SB-202190] | > 10 | > 10 | > 10 | > 10 | > 10 | > 10 | > 10 | > 10 | > 10 | > 10 | > 10 | 170 | > 10 | > 10 | > 10 | > 10 | > 10 | > 10 | > 10 | > 10 | Kd [17]: > 10 µM; Kd [18]: > 10 µM; Kd [19]: > 10 µM
CCN1CCN(Cc2ccc(NC(=O)Nc3ccc(Oc4cc(NC)ncn4)cc3)cc2C(F)(F)F)CC1 [AST-487] | – | – | – | – | – | > 10 | – | – | 0.082 | – | – | – | > 10 | – | – | – | – | – | > 10 | > 10 | –
